# Results as given in patent US20210214399A1, “PH LOW INSERTION PEPTIDE AND COMPOSITION THEREOF” (priority 2017, published 2021).
# Assays:
# [1] = background art, pHLIP derivatives produced by sequence adjustment; cited from earlier work
# [2] = tested on: Mouse colon cancer cells CT26 tumors; conditions: for fluorescent marking of tumor tissues by 72 hours: 72 hours after intravenous injection; for marking of tumors (in vivo imaging): CT26 subcutaneous tumors, alexa647 marked peptide intravenously, imaging at 24, 48, 72 hours
# Procedure: Mouse colon cancer cells CT26 were subcutaneously inoculated into Balb/c mice, and when the tumors grew to about 1 cm, saline (N.S.), alexa647 marked p-var7, alexa647 marked var7 were intravenously injected respectively with a dosage of 60 μM/100 pL N. S., in vivo imaging (excitation with Cy5.5 wavelength) was performed at 24, 48, 72 hours with supine position photography. The mice were sacrificed for tumor imaging.
# [3] = tested on: Human colorectal cancer cell line SW480; conditions: for insertion into the surface of the cell (fluorescence on cell membrane): acid solution environment, PBS pH 6.3, alexa647 marked peptide; for insertion into the surface of the cell (fluorescence on cell membrane) / membrane insertion ability: 37° C. 1 hour; for membrane insertion ability: neutral solution environment, PBS pH 7.4, alexa647 marked peptide
# Procedure: (1) The SW480 cells in logarithmic phase were collected, the culture solution was discarded, and the cells were washed twice with saline. […] The cells were transferred to a 10 ml test tube to centrifuge at 1000 rpm for 5 min, the supernatant was removed, and 1 ml of RPMI 1640 medium containing 10% fetal bovine serum was added to resuspend and mix the cells. After 10 μl of the cell suspension was added to a cell counting plate and counted, a certain amount of the cell suspension was added into the laser confocal cell culture dish, which was then adjusted to a cell system of 5* 10^5, 1 ml with complete medium, and put into a cell incubator and incubated overnight.
# (2) The culture solution was prepared using 1 mol/L hydrochloric acid and a PBS buffer at pH 7.4. Hydrochloric acid was added dropwise to the PBS buffer, and finally the pH value of the buffer was titrated to 6.3.
# (3) When the SW480 cells adhered after being cultured overnight, the supernatant of the medium was removed, and the cells were washed twice with a PBS buffer at pH 7.4.
# (4) The PBS buffer in the cell culture dish was removed, 1 ml of the previously prepared mixed culture buffers of PBS at pH 6.3 and 7.4 and peptides were added to the two dishes, respectively, and 1 ml of the PBS medium at pH 7.4 without peptides was added to another control dish, and all of them were put in a 37° C. cell incubator to incubate for 1 hour.
# (5) After incubation, the supernatant of the peptide-containing PBS culture solution was removed, and the peptide-containing PBS culture solution was washed three times with peptide-free PBS buffers with different pH values in each group, and then added with a PBS buffer at pH 7.4.
# (6) The prepared cell culture dishes were placed under the laser confocal microscope (647 mm excitation wavelength) to observe the fluorescence expression on the surface of the cell membrane.
# 4T1 cells tumors = conditions: fusion peptide 1 mg/kg intravenous every other day combined with CD20 monoclonal antibody GA101 30 mg/kg intraperitoneal twice a week; 4T1 tumors, Balb/c mice
# Procedure: 4T1 cells were inoculated into mouse breasts, 2×10^6 cells/mouse, 50 μl volume.
# (§1) When the tumor grows to 50mm^3, treatment was started.
# (§2) The tumor volume and mouse body weight were measured every 3 days.
# When the tumor volume in the control group reached 1000 mm^3, the administration was terminated.
# When the tumor grows to 50mm^3, treatment was started. There are four groups: CD20-var3/GA101 group (10), GA101 group (5), CD20-var3 group (5), PBS group (10).
# Administration method: CD20-var3, 1 mg/kg, intravenous injection, every other day; GA101, 30 mg/kg, intraperitoneal injection, twice a week. The tumor volume and mouse body weight were measured every 3 days.
# as §1, §2
# A549 tumors = conditions: Herceptin 10 mg/kg intraperitoneal combined with Her2 D4-pHLIP 40 μM/100 μl intravenous, nude mice
# Procedure: A549 was inoculated into nude mice, when the tumor diameter grew to 1 cm, the tumor was aseptically peeled off, shredded, homogenized, and sieved to make a single cell suspension which was cultured and amplified in 1640 complete medium. The cells were injected into the subcutaneous abdomen of the nude mice with 1×10^6 cells/body, when the tumor diameter grew to 0.5 to 1 cm, the oversized and undersized tumors were removed, and mice with substantially the same tumor size were grouped. There were 4 groups: injection group of the Her2 D4-pHLIP alone, 10; injection group of the Her2 D4-pHLIP combined with the herceptin, 10; injection group of the Her2 D4-pHLIP combined with the IgG1, 10; injection group of normal saline N. S, 10. The tumor size was measured every 3 days.
# Administration method: Her2 D4-pHLIP administration: each was injected intravenously with 40 μM/100 μl every time, starting from the day after the grouping was completed, once a day, and once every 2 days; antibody administration: Intraperitoneal injection, the dose was 10 mg/kg, the injection frequency was the same as the Her2 D4-pHLIP, and the injection time was 6 to 12 hours after the administration of the Her2 D4-pHLIP until the end.
substance,measurement,setting,value
ACDDQNPWRAYLDLLFPTDTLLLDLLW (listed as Homo sapiens) [var3],tumor targeting,[1],improve its tumor targeting
ACEEQNPGGGSACEEQNPWARYLEWLFPTETLLLEL [p-var7],fluorescent marking of tumor tissues by 72 hours,"[2]; CT26 tumors, Balb/c mice",still showed strong fluorescent marking
same,marking of tumors (in vivo imaging),[2]; Balb/c mice,could mark tumors
same,"marking ability, compared","[2]; p-var7 compared with var7, CT26 tumors, Balb/c mice",stronger marking ability
same,"accumulation of fluorescence in the tumor sites, persistence","[2]; previous experiment results of in vivo imaging, same dose 40 μM/100 μl intravenously",basically degraded by the third day
same,insertion into the surface of the cell (fluorescence on cell membrane),[3],could effectively insert into the surface of human colon cancer cell SW480
same,membrane insertion ability,[3],lost
same,selectivity in the acidic microenvironment,"[3]; p-var7 compared with var7, pH 6.3 vs 7.4",more selective in the acidic microenvironment of tumor tissues
"ACEEQNPWARYLEWLFPTETLLLEL [var7, reference compound]",fluorescence intensity as time went by,"[2]; 24 to 72 hours, var7 compared with p-var7, CT26 tumors, Balb/c mice",decayed more significantly
same,fluorescent marking of tumor tissues by 72 hours,"[2]; CT26 tumors, Balb/c mice",only a few markers were visible in the tumor tissues
same,marking of tumors (in vivo imaging),[2]; Balb/c mice,could mark tumors
same,insertion into the surface of the cell (fluorescence on cell membrane),[3],could effectively insert into the surface of human colon cancer cell SW480
same,membrane insertion ability,[3],retained the ability
same,tumor targeting,[1],maintaining good targeting
NIYNCEPANP SEKN SP S TQYC Y SIQ GGG SA S EEQNPWARYLEWLFP TETLLLEL [CD20-var7],tumor cell growth,4T1 cells tumors,can significantly inhibit tumor cells growth
NIYNCEPANP SEKN SP S TQYCYSIQGGGSACDDQNPWRAYLDLLFPTDTLLLD LLW [CD20-var3],tumor cell growth,4T1 cells tumors,can significantly inhibit tumor cell growth
NIYNCEPANP SEKN SP S TQYCYSIQGGGSACEQNPIYWARYADWLF TTPLLLL DLALLVDADEG [CD20-WT],tumor cell growth,4T1 cells tumors,can significantly inhibit tumor cell growth
trastuzumab [Herceptin],tumor growth,A549 tumors,significantly inhibited tumor growth
